Experimental data taken from ChEMBL document CHEMBL1156935, “Discovery of potent BACE-1 inhibitors containing a new hydroxyethylene (HE) scaffold: exploration of P1' alkoxy residues and an aminoethylene (AE) central core” (Bioorg Med Chem, 2010).

Key:
Cathepsin D = Cathepsin D (Homo sapiens, UniProt P07339)
Description: Inhibition of human cathepsin D

Beta-secretase 1 = Beta-secretase 1 (Homo sapiens, UniProt P56817)
Description: Inhibition of human BACE1 expressed in Escherichia coli BL21(DE3) by resolved fluorescence assay

Homo sapiens = organism: Homo sapiens; assay: Selectivity for human BACE1 over human cathepsin D

Beta-secretase 1, sequence (P56817 whole entry): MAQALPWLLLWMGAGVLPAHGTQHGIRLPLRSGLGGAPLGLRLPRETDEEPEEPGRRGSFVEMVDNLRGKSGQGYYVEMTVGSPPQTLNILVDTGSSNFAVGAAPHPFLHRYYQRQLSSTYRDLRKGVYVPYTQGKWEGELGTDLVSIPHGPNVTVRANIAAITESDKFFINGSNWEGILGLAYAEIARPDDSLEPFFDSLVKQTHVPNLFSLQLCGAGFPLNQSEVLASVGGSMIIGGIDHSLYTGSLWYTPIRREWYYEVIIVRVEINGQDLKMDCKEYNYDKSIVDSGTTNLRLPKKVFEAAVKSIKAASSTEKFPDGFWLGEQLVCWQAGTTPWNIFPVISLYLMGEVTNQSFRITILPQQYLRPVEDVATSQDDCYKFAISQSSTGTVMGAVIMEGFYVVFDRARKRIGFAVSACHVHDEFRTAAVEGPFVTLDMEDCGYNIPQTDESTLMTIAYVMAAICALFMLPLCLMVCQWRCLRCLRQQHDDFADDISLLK
Cathepsin D, sequence (P07339 65-162 limits assumed): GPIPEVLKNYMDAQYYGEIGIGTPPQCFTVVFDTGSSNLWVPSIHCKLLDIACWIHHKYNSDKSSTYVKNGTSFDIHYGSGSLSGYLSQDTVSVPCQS
Cathepsin D, sequence (P07339 169-412 limits assumed): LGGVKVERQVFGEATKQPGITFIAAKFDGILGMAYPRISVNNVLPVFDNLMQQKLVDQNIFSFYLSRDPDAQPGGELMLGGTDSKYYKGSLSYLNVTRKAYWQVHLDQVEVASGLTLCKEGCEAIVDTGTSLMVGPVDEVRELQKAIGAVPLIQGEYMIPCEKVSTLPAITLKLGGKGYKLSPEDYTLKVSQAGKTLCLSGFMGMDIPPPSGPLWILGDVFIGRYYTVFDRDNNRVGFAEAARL

SMILES | Ki (Cathepsin D) [µM] | Ki (Beta-secretase 1) [µM] | Ratio Ki (Homo sapiens)
C=CCO[C@H](C[C@H](O)[C@H](COc1cc(F)cc(F)c1)NC(=O)c1cc(C(=O)N[C@H](C)c2ccccc2)cc(N(C)S(C)(=O)=O)c1)C(=O)N[C@H](C(=O)NCc1ccccc1)C(C)C | 0.13 | 0.0033 | 
CCCO[C@H](C[C@H](O)[C@H](COc1cc(F)cc(F)c1)NC(=O)c1cc(C(=O)N[C@H](C)c2ccccc2)cc(N(C)S(C)(=O)=O)c1)C(=O)N[C@H](C(=O)NCc1ccccc1)C(C)C | 0.061 | 0.003 | 
CO[C@H](CCC(COc1cc(F)cc(F)c1)NC(=O)c1cc(C(=O)N[C@H](C)c2ccccc2)cc(N(C)S(C)(=O)=O)c1)C(=O)N[C@H](C(=O)NCc1ccccc1)C(C)C (single isomer, unassigned) | > 5 | 0.13 | 
CCO[C@H](C[C@H](O)[C@H](COc1cc(F)cc(F)c1)NC(=O)c1cc(C(=O)N[C@H](C)c2ccccc2)cc(N(C)S(C)(=O)=O)c1)C(=O)N[C@H](C(=O)NCc1ccccc1)C(C)C | 3.35 | 0.0021 | > 1500
CC(C)[C@H](NC(=O)[C@@H](C[C@H](O)[C@H](COc1cc(F)cc(F)c1)NC(=O)c1cc(C(=O)N[C@H](C)c2ccccc2)cc(N(C)S(C)(=O)=O)c1)OCC1CC1)C(=O)NCc1ccccc1 |  | 0.0013 | 
CC(C)[C@H](NC(=O)[C@@H](C[C@H](O)[C@H](COc1cc(F)cc(F)c1)NC(=O)c1cc(C(=O)N[C@H](C)c2ccccc2)cc(N(C)S(C)(=O)=O)c1)OCc1ccccc1)C(=O)NCc1ccccc1 | 0.062 | 0.02 | 1.6

Results, then the compound that gave them:

Ki (Cathepsin D) [µM] | Ki (Beta-secretase 1) [µM] | Ratio Ki (Homo sapiens) | SMILES
> 5 | 0.14 |  | CO[C@H](C[C@H](N)C(COc1cc(F)cc(F)c1)NC(=O)c1cc(C(=O)N[C@H](C)c2ccccc2)cc(N(C)S(C)(=O)=O)c1)C(=O)N[C@H](C(=O)NCc1ccccc1)C(C)C (single isomer, unassigned)
> 5 | 0.07 |  | CO[C@H](C[C@H](N=[N+]=[N-])C(COc1cc(F)cc(F)c1)NC(=O)c1cc(C(=O)N[C@H](C)c2ccccc2)cc(N(C)S(C)(=O)=O)c1)C(=O)N[C@H](C(=O)NCc1ccccc1)C(C)C (single isomer, unassigned)
